Among the data in patent publication US9034921B2, “Diphenylmethane derivatives as SGLT2 inhibitors” (GREEN CROSS CORPORATION, priority 2011, dated 2015) are IC50 values, retold here.

The target in the assay is human SGLT2 (Homo sapiens (Human), UniProt P31639). The assay can be described thus: Inhibitory effects on human SGLT2 activities (14C-AMG uptake, sodium-dependent glucose transport assay). To be noted: CHO cells stably expressing hSGLT2, 37° C., 2 h, single determinations. It counts as cell-based. The method in brief: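 CHO cells stably expressing hSGLT2 were preincubated 10 min at 37 °C in choline (Na+-free) buffer, then exposed 2 h at 37 °C to compound in Na+ uptake buffer with 8 μM 14C-AMG and 1 mM unlabeled AMG. Radioactivity was scintillation counted; IC50 came from nonlinear regression.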
Sequence of human SGLT2 (P31639 whole entry): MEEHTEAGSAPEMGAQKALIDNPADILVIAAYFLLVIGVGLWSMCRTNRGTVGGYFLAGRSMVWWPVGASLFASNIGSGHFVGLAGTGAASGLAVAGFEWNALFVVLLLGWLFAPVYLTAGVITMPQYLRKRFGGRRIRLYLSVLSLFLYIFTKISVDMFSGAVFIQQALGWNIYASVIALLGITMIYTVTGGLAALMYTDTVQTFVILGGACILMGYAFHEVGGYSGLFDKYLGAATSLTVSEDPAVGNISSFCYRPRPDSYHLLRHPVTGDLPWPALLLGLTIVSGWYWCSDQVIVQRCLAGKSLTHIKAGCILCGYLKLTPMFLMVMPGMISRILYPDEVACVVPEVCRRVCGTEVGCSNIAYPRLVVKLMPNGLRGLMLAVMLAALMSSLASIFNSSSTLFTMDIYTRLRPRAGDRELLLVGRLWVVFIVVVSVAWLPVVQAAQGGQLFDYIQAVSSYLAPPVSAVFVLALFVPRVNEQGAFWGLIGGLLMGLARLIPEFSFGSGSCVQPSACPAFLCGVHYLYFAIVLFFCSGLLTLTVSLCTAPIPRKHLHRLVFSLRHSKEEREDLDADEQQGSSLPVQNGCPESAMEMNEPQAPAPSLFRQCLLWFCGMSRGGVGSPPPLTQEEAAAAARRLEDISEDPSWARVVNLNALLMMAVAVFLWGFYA

The molecule `CCOc1ccc(Cc2cc([C@@H]3O[C@H](CO)[C@@H](O)[C@H](O)[C@H]3O)c3c(c2C)OCC3)cc1` [Example E129, (2S,3R,4R,5S,6R)-2-(6-(4-Ethoxybenzyl)-7-methyl-2,3-dihydrobenzofuran-4-yl)-6-(hydroxymethyl)tetrahydro-2H-pyran-3,4,5-triol] registered an IC50 of 1.28 nM.

For `COc1ccc(Cc2cc([C@@H]3O[C@H](CO)[C@@H](O)[C@H](O)[C@H]3O)c3c(c2Cl)OC(C)C3)cc1` (stereo partly drawn) [Example E130, (2S,3R,4R,5S,6R)-2-(7-Chloro-6-(4-methoxybenzyl)-2-methyl-2,3-dihydrobenzofuran-4-yl)-6-(hydroxymethyl)tetrahydro-2H-pyran-3,4,5-triol], it took 1.78 nM to reach half-maximal inhibition (IC50). The IC50 values of the last two molecules are within 1.5-fold of each other.

As to `COc1ccc(Cc2cc([C@@H]3O[C@H](CO)[C@@H](O)[C@H](O)[C@H]3O)c3c(c2Cl)CC(C)O3)cc1` (stereo partly drawn) [Example E131, (2S,3R,4R,5S,6R)-2-(4-Chloro-5-(4-methoxybenzyl)-2-methyl-2,3-dihydrobenzofuran-7-yl)-6-(hydroxymethyl)tetrahydro-2H-pyran-3,4,5-triol], the half-maximal inhibitory concentration (IC50) was determined as 1.02 nM.

On to `CCc1ccc(Cc2cc([C@@H]3O[C@H](CO)[C@@H](O)[C@H](O)[C@H]3O)c3c(c2Cl)CC(C)O3)cc1` (stereo partly drawn) [Example E132, (2S,3R,4R,5S,6R)-2-(4-Chloro-5-(4-ethylbenzyl)-2-methyl-2,3-dihydrobenzofuran-7-yl)-6-(hydroxymethyl)tetrahydro-2H-pyran-3,4,5-triol], for which the midpoint of inhibition, the IC50, lay at 0.706 nM.

Molecule `CC1Cc2c(Cl)c(Cc3ccc(C4CC4)cc3)cc([C@@H]3O[C@H](CO)[C@@H](O)[C@H](O)[C@H]3O)c2O1` (stereo partly drawn) [Example E133, (2S,3R,4R,5S,6R)-2-(4-Chloro-5-(4-cyclopropylbenzyl)-2-methyl-2,3-dihydrobenzofuran-7-yl)-6-(hydroxymethyl)tetrahydro-2H-pyran-3,4,5-triol] had an IC50 of 1.11 nM.

In the case of `CCCc1ccc(Cc2cc([C@@H]3O[C@H](CO)[C@@H](O)[C@H](O)[C@H]3O)c3c(c2Cl)CC(C)O3)cc1` (stereo partly drawn) [Example E134, (2S,3R,4R,5S,6R)-2-(4-Chloro-2-methyl-5-(4-propylbenzyl)-2,3-dihydrobenzofuran-7-yl)-6-(hydroxymethyl)tetrahydro-2H-pyran-3,4,5-triol], the IC50 is 0.885 nM.

As to `CCOc1ccc(Cc2cc([C@@H]3O[C@H](CO)[C@@H](O)[C@H](O)[C@H]3O)c3c(c2Cl)OC(C)C3)cc1` (stereo partly drawn) [Example E135, (2S,3R,4R,5S,6R)-2-(7-Chloro-6-(4-ethoxybenzyl)-2-methyl-2,3-dihydrobenzofuran-4-yl)-6-(hydroxymethyl)tetrahydro-2H-pyran-3,4,5-triol], the IC50 was determined as 1.65 nM. This IC50 is about 1.9-fold higher than that of the molecule before.

The molecule `CCc1ccc(Cc2cc([C@@H]3O[C@H](CO)[C@@H](O)[C@H](O)[C@H]3O)c3c(c2Cl)OC(C)C3)cc1` (stereo partly drawn) [Example E136, (2S,3R,4R,5S,6R)-2-(7-Chloro-6-(4-ethylbenzyl)-2-methyl-2,3-dihydrobenzofuran-4-yl)-6-(hydroxymethyl)tetrahydro-2H-pyran-3,4,5-triol] showed an IC50 of 0.835 nM.

Molecule `C=Cc1ccc(Cc2cc([C@@H]3O[C@H](CO)[C@@H](O)[C@H](O)[C@H]3O)c3c(c2Cl)OC(C)C3)cc1` (stereo partly drawn) [Example E137, (2S,3R,4R,5S,6R)-2-(7-Chloro-2-methyl-6-(4-vinylbenzyl)-2,3-dihydrobenzofuran-4-yl)-6-(hydroxymethyl)tetrahydro-2H-pyran-3,4,5-triol] showed an IC50 of 1 nM.

Molecule `CC1Cc2c([C@@H]3O[C@H](CO)[C@@H](O)[C@H](O)[C@H]3O)cc(Cc3ccc(C4CC4)cc3)c(Cl)c2O1` (stereo partly drawn) [Example E138, (2S,3R,4R,5S,6R)-2-(7-Chloro-6-(4-cyclopropylbenzyl)-2-methyl-2,3-dihydrobenzofuran-4-yl)-6-(hydroxymethyl)tetrahydro-2H-pyran-3,4,5-triol] had an IC50 of 1.13 nM. This IC50 and that of the molecule before are within 1.5-fold of each other.

Take `Cc1ccc(Cc2cc([C@@H]3O[C@H](CO)[C@@H](O)[C@H](O)[C@H]3O)c3c(c2Cl)CCC3)cc1` [Example E139, (2S,3R,4R,5S,6R)-2-(7-Chloro-6-(4-methylbenzyl)-2,3-dihydro-1H-inden-4-yl)-6-(hydroxymethyl)tetrahydro-2H-pyran-3,4,5-triol]: inhibition was half-maximal at 0.808 nM (IC50). This IC50 and that of the molecule before are within 1.5-fold of each other.

As to `CNc1ccc(Cc2cc([C@@H]3O[C@H](CO)[C@@H](O)[C@H](O)[C@H]3O)c3c(c2Cl)CCC3)cc1` [Example E140, (2S,3R,4R,5S,6R)-2-(7-Chloro-6-(4-(methylamino)benzyl)-2,3-dihydro-1H-inden-4-yl)-6-(hydroxymethyl)tetrahydro-2H-pyran-3,4,5-triol 2,2,2-trifluoroacetate], half-maximal inhibition (IC50) required 1.34 nM.

For the molecule `CNc1ccc(Cc2cc([C@@H]3O[C@H](CO)[C@@H](O)[C@H](O)[C@H]3O)c3c(c2Cl)OCC3)cc1` [Example E141, (2S,3R,4R,5S,6R)-2-(7-Chloro-6-(4-(methylamino)benzyl)-2,3-dihydrobenzofuran-4-yl)-6-(hydroxymethyl)tetrahydro-2H-pyran-3,4,5-triol 2,2,2-trifluoroacetate], the IC50 was 2.82 nM.

For `COc1ccc(Cc2cc([C@@H]3O[C@H](CO)[C@@H](O)[C@H](O)[C@H]3O)c3c(c2Cl)CC(C)S3)cc1` (stereo partly drawn) [Example E142, (2S,3R,4R,5S,6R)-2-(4-Chloro-5-(4-methoxybenzyl)-2-methyl-2,3-dihydrobenzo[b]thiophen-7-yl)-6-(hydroxymethyl)tetrahydro-2H-pyran-3,4,5-triol], inhibition was half-maximal at 1.09 nM (IC50). Compared with the last molecule, the IC50 is about 2.6-fold lower.

As to `CCOc1ccc(Cc2cc([C@@H]3O[C@H](CO)[C@@H](O)[C@H](O)[C@H]3O)c3c(c2Cl)CC(C)S3)cc1` (stereo partly drawn) [Example E143, (2S,3R,4R,5S,6R)-2-(4-Chloro-5-(4-ethoxybenzyl)-2-methyl-2,3-dihydrobenzo[b]thiophen-7-yl)-6-(hydroxymethyl)tetrahydro-2H-pyran-3,4,5-triol], the IC50 was 1.03 nM.

In the case of `CCc1ccc(Cc2cc([C@@H]3O[C@H](CO)[C@@H](O)[C@H](O)[C@H]3O)c3c(c2Cl)CC(C)S3)cc1` (stereo partly drawn) [Example E144, (2S,3R,4R,5S,6R)-2-(4-Chloro-5-(4-ethylbenzyl)-2-methyl-2,3-dihydrobenzo[b]thiophen-7-yl)-6-(hydroxymethyl)tetrahydro-2H-pyran-3,4,5-triol], the IC50 turned out to be 0.976 nM.

Turning to `CCOc1ccc(Cc2cc([C@@H]3O[C@H](SC)[C@@H](O)[C@H](O)[C@H]3O)c3c(c2Cl)CC(C)O3)cc1` (stereo partly drawn) [Example E145, (2S,3R,4R,5S,6R)-2-(4-Chloro-5-(4-ethoxybenzyl)-2-methyl-2,3-dihydrobenzofuran-7-yl)-6-(methylthio)tetrahydro-2H-pyran-3,4,5-triol], half-maximal inhibition (IC50) was put at 0.685 nM.

In turn, `CCOc1ccc(Cc2cc([C@@H]3O[C@H](S(C)(=O)=O)[C@@H](O)[C@H](O)[C@H]3O)c3c(c2Cl)CC(C)O3)cc1` (stereo partly drawn) [Example E146, (2S,3R,4R,5S,6R)-2-(4-Chloro-5-(4-ethoxybenzyl)-2-methyl-2,3-dihydrobenzofuran-7-yl)-6-(methylsulfonyl)tetrahydro-2H-pyran-3,4,5-triol] registered an IC50 of 3.45 nM.

For `CCOc1ccc(Cc2cc([C@@H]3O[C@H]([S+](C)[O-])[C@@H](O)[C@H](O)[C@H]3O)c3c(c2Cl)CC(C)O3)cc1` (stereo partly drawn) [Example E147, (2S,3R,4R,5S,6R)-2-(4-Chloro-5-(4-ethoxybenzyl)-2-methyl-2,3-dihydrobenzofuran-7-yl)-6-((S)-methylsulfinyl)tetrahydro-2H-pyran-3,4,5-triol], the IC50 is 5.4 nM.

Take `CC1Cc2c(Cl)c(Cc3ccc(C(C)C)cc3)cc([C@@H]3O[C@H](CO)[C@@H](O)[C@H](O)[C@H]3O)c2O1` (stereo partly drawn) [Example E149, (2S,3R,4R,5S,6R)-2-(4-Chloro-5-(4-isopropylbenzyl)-2-methyl-2,3-dihydrobenzofuran-7-yl)-6-(hydroxymethyl)tetrahydro-2H-pyran-3,4,5-triol]: the IC50 turned out to be 1.8 nM.

As for `CC1Cc2c([C@@H]3O[C@H](CO)[C@@H](O)[C@H](O)[C@H]3O)cc(Cc3ccc(C(C)C)cc3)c(Cl)c2O1` (stereo partly drawn) [Example E150, (2S,3R,4R,5S,6R)-2-(7-Chloro-6-(4-isopropylbenzyl)-2-methyl-2,3-dihydrobenzofuran-4-yl)-6-(hydroxymethyl)tetrahydro-2H-pyran-3,4,5-triol], it took 1.44 nM to reach half-maximal inhibition (IC50).

`CCc1ccc(Cc2cc([C@@H]3O[C@H](CO)[C@@H](O)[C@H](O)[C@H]3O)c3c(c2Cl)OCC3C)cc1` (stereo partly drawn) [Example E153, (2S,3R,4R,5S,6R)-2-(7-Chloro-6-(4-ethylbenzyl)-3-methyl-2,3-dihydrobenzofuran-4-yl)-6-(hydroxymethyl)tetrahydro-2H-pyran-3,4,5-triol] showed a half-inhibitory concentration (IC50) of 0.721 nM.

`CSc1ccc(Cc2cc([C@@H]3O[C@H](CO)[C@@H](O)[C@H](O)[C@H]3O)c3c(c2Cl)CCCO3)cc1` [Example E154, (2S,3R,4R,5S,6R)-2-(5-Chloro-6-(4-(methylthio)benzyl)chroman-8-yl)-6-(hydroxymethyl)tetrahydro-2H-pyran-3,4,5-triol] had an IC50 of 1.01 nM.

Molecule `OC[C@H]1O[C@@H](c2cc(Cc3ccc(C4CC4)cc3)c(Cl)c3c2CCCO3)[C@H](O)[C@@H](O)[C@@H]1O` [Example E155, (2S,3R,4R,5S,6R)-2-(8-Chloro-7-(4-cyclopropylbenzyl)chroman-5-yl)-6-(hydroxymethyl)tetrahydro-2H-pyran-3,4,5-triol] registered an IC50 of 0.881 nM.

The molecule `COc1ccc(Cc2cc([C@@H]3O[C@H](CO)[C@@H](O)[C@H](O)[C@H]3O)c3c(c2Cl)OCCC3)cc1` [Example E156, (2S,3R,4R,5S,6R)-2-(8-Chloro-7-(4-methoxybenzyl)chroman-5-yl)-6-(hydroxymethyl)tetrahydro-2H-pyran-3,4,5-triol] displayed an IC50 of 2.09 nM.

For the molecule `CCOc1ccc(Cc2cc([C@@H]3O[C@H](CO)[C@@H](O)[C@H](O)[C@H]3O)c3c(c2Cl)OCCC3)cc1` [Example E157, (2S,3R,4R,5S,6R)-2-(8-Chloro-7-(4-ethoxybenzyl)chroman-5-yl)-6-(hydroxymethyl)tetrahydro-2H-pyran-3,4,5-triol], the IC50 was 1.28 nM.
